{"source": "patent US20090098050A1", "about": "“CALCIUM BINDING PEPTIDES” (THE REGENTS OF THE UNVERSITY OF CALIFORNIA, priority 2005, published 2009)", "key": {"[1]": {"assay": "Nucleation of hydroxyapatite on tooth enamel and dentin (SEM)", "set-up": "species or system human", "details": "12.5 μM peptide, SBFn 4 hours then SBFg", "description": "FIG. 5: Nucleation of hydroxyapatite on enamel (top) and dentin (bottom) surfaces. Surfaces were prepared and treated as described in Example 6 and as indicated by the labels, followed by imaging using Scanning Electron Microscopy. The upper group (top two rows) represents enamel samples, while the lower group (bottom two rows) represents dentin samples. Within each group, the top row represents samples that were not demineralized prior to treatment, and the bottom row represents samples that were demineralized by treatment with phosphoric acid. Scanning Electron Micrographs are shown, scale bars=[…]. Left column: samples that were not exposed to any treatment prior to nucleation and crystal growth. Center column: samples that were exposed to buffer only prior to nucleation and crystal growth. Right column: samples that were exposed to 12.5 μM 8DSS peptide prior to nucleation and crystal growth. Crystal growth indicates early nucleation. To determine whether applying DSS to various preparations of tissue promoted HA nucleation, which could ultimately lead to tissue remineralization, sagittally sectioned adult human teeth (obtained after extraction during normal clinical practice) were polished using a Streurs grinding wheel, and prepared for nucleation experiments. […]"}, "[2]": {"assay": "Binding of fluorescein-labeled peptides to hydroxyapatite nanocrystals (Langmuir isotherm)", "details": "fluorescein-labeled peptide 0-100 μM, 0.3 mg hydroxyapatite, ten minutes, Langmuir fit", "description": "FIG. 1: Binding affinities of DSS and DSS variant peptides for hydroxyapatite and tooth surfaces. A-C. Fluorescein-labeled peptides at concentrations ranging from 0-100 μM were incubated with 0.3 mg of hydroxyapatite nanocrystals (specific surface area=100 m^2/g) for ten minutes, followed by removal of the hydroxyapatite by centrifugation. The amount of peptide in the mixture before and after hydroxyapatite removal was determined by Abs480. Isotherms were plotted and fit to the Langmuir equation to extract values for KA, a constant reflecting the affinity of the peptide for the hydroxyapatite surface. D. Sagitally sectioned human teeth were incubated with 12.5 μM 5(6) carboxyfluorescein-labeled 6DSS peptide for ten minutes, followed by rinsing. Peptide binding to tooth surfaces was visualized by Confocal Laser Scanning Microscopy (CLSM) using blue laser illumination (λA=488 nm) and a FITC emission filter. Left side, light colored region: dentin. Right side, dark colored region: enamel.\nFour DSS peptides containing two (2DSS, SEQ ID NO:12), four (4DSS, SEQ ID NO:13), six (6DSS, SEQ ID NO:14), or eight(8DSS, SEQ ID NO:15) Asp-Ser-Ser (DSS) repeats were generated. Peptides were labeled with fluorescein, and various concentrations of the labeled peptides (0-100 μM) were mixed with a fixed amount (0.3 mg) of hydroxyapatite nanocrystals having a specific surface area of 100 m^2/g (Berkeley Advanced Biomaterials, Inc.). Samples were incubated for ten minutes, followed by removal of the hydroxyapatite by centrifugation. The amount of peptide in the mixture was measured both before and after hydroxyapatite removal by spectroscopic absorbance at 480 nm (the peak absorbance of the fluorescein label). The amount of peptide bound was calculated by comparing the ratio of the final (Af) and initial (Ai) absorbances to the initial concentration (P0) [Pbound=[…]]. Plots were generated illustrating the amount of peptide bound per m^2 of hydroxyapatite surface area versus concentration of unbound peptide at equilibrium. The resulting isotherms were fit to the Langmuir isotherm (x/m=(KANMaxCeq)/(1+KACeq)) (Calis 1995), which describes the binding activity of a molecule in terms of a combination of binding affinity (KA) and avidity (NMax). KA represents the affinity constant of the peptide for the hydroxyapatite surface. In this equation, x/m represents the molar amount of peptide bound per unit of hydroxyapatite surface area, NMax represents the maximum surface concentration (mol/m^2), and Ceq represents the molar concentration of unbound peptide at equilibrium. The Langmuir isotherm describes the binding of molecules to surfaces with the conditions that 1) all binding sites have the same affinity for the peptide, and 2) the peptide will form a monolayer on the surface but cannot accumulate to higher levels. The excellent fit of the Langmuir isotherm to the experimental data validates these conditions, and these affinity constants were used for comparisons between peptides."}, "[3]": {"assay": "Binding to calcium oxalate crystals (fluorescence microscopy)", "details": "12.5 μM labeled peptide, ten minutes", "description": "FIG. 11: Binding of 8DSS peptide to calcium oxalate. Calcium oxalate crystals were exposed to 12.5 μM 8DSS peptide, washed, and imaged by fluorescence microscopy as described in Example 12. […] The brightfield image (top) confirms the presence of crystals, while the fluorescence image of the same region (bottom) confirms that calcium oxalate has no visible fluorescence under these conditions. […] Calcium oxalate was prepared using a previously described method (Wang 2006). Crystals of calcium oxalate were washed with deionized water, then resuspended in a solution containing 50 mM HEPES pH 7.0, 10 mM NaCl, and 12.5 μM 5(6)-carboxyfluorescein-labeled 8DSS peptide. The crystal suspension was incubated at room temperature for ten minutes. The crystals were then harvested by centrifugation, washed twice with a solution of 50 mM HEPES pH 7.0 and 10 mM NaCl, and visualized by fluorescence microscopy as described in Example 11."}}}
{"substance": "8DSS: peptide containing eight Asp-Ser-Ser (DSS) repeats, SEQ ID NO:15 (DSSDSSDSSDSSDSSDSSDSSDSS; calcium binding peptide containing eight DSS repeats, 8DSS)", "values": [{"measurement": "Crystal growth (nucleation) on demineralized enamel", "setting": "[1]", "value": "significant crystal growth"}, {"measurement": "Crystal growth (nucleation) on nondemineralized dentin", "setting": "[1]", "value": "most significant growth"}, {"measurement": "KA, affinity constant of the peptide for the hydroxyapatite surface", "setting": "[2]", "value": "300,000 M^−1"}, {"measurement": "Staining of calcium oxalate aggregates", "setting": "[3]", "value": "significant staining"}]}
